The values that follow come from patent US20250163057A1, “DCN-1 MODULATING COMPOUNDS AND METHODS OF USE THEREOF” (Cellarity, Inc., priority 2023, published 2025).

Broadly, the pIC50 is −log10 of the IC50, conventionally taken in molar units. In general, pEC50 refers to the EC50 on a negative log10 scale, so that one unit is a factor of ten. A low value points to a large EC50.

pEC50, pIC50: −log10 of the molar value. Like-named read-outs stand apart in the source and are kept apart here.

Assay [1] deals with DCN1 (DCUND1) protein PONY domain (Homo sapiens (Human), UniProt Q96GG9). Description: TR-FRET assay, DCN1 binding with FAM-labeled probe. The procedure, abridged: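 First, the E. coli-derived PONY domain was biotinylated and paired with streptavidin Tb cryptate. Compounds in 0.1% DMSO were then added to DCN1 and FAM-probe (5 nM/20 nM, or 0.31 nM/900 nM total with 800 nM unlabelled) in TritonX, 200 mM NaCl buffer. Finally, TR-FRET ratios were recorded at 1, 5 and 24 hrs.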
Chain of DCN1 (DCUND1) protein PONY domain (Q96GG9 60-248): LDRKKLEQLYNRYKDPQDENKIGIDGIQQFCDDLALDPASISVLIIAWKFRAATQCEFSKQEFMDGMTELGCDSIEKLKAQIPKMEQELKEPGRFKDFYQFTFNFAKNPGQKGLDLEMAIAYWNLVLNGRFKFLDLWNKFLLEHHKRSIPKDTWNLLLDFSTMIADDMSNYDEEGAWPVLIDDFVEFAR

Assay [2] deals with fetal hemoglobin gene HBG1. The assay can be described thus: HBG1 Nanostring Assay in CD34+ HSPC erythroid differentiation culture. It counts as cell-based, human. Particulars: for pEC50: HBG1 induction, Day10 of erythroid differentiation; for Nanostring Ymax obs (%): relative to a control compound (C1). The procedure, abridged:
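HBG1 counts came from direct nCounter hybridization (67° C, 22 h) of day-10 lysates, normalized to ERCC positive controls and a housekeeping gene, giving EC50 and Ymax versus a reference compound. Compounds in 0.1% DMSO were present from day −2 while cells underwent EPO/SCF/IL-3 erythroid differentiation, with IL-3 dropped at day 7, at 37° C.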

Where [3] appears, read: 24 hr after treatment with compound, read-out: TR FRET IC50 24 hr.
Where [4] appears, read: read-out: TR FRET IC50 1 hr, 1 hr after treatment with compound.

As to `CCN1C(=O)[C@@H](NC(=O)c2cccc(C(F)(F)F)c2)[C@@H](C2CC2)c2c(C(=O)N3CCNC[C@H]3C#N)nn(C3CCOCC3)c21` [Compound I-582], the negative logarithm of the IC50 (pIC50) in assay [1] (setting [3]) and in assay [1] (setting [4]) was at least 6.70 throughout. For the same compound, the pEC50 in assay [2] (Homo sapiens, 240 h) was 6.00 to 7.00. Also, the “Nanostring Ymax obs (%)” value in assay [2] is listed as “+++ (Nanostring Ymax greater than 100.0)”.

Turning to `CCN1C(=O)[C@@H](NC(=O)c2cccc(C(F)(F)F)c2)[C@@H](c2ccc(F)cc2)c2c(NC(=O)C3=CCC3)nn(-c3ccccc3)c21` (racemic) [Compound I-152], the pIC50 in assay [1] (setting [3]) and in assay [1] (setting [4]) was at least 6.70 throughout. This compound gave a pEC50 in assay [2] (Homo sapiens, 240 h) of 6.00 to 7.00. Moreover, in assay [2], the “Nanostring Ymax obs (%)” value was “+++ (Nanostring Ymax greater than 100.0)”.

For the compound `CCN1C(=O)[C@@H](NC(=O)c2cccc(C(F)(F)F)c2)[C@@H](c2ccc(F)cc2)c2c(C(=O)N3CCC[C@H]3C#N)nn(C3CCOCC3)c21` [Compound I-350], the pIC50 in assay [1] (setting [3]) was at least 6.70. In addition, in assay [1] (setting [4]), the pIC50 is at least 6.70. In addition, in assay [2], the pEC50 was at least 7.00 and the “Nanostring Ymax obs (%)” value is listed as “+++ (Nanostring Ymax greater than 100.0)”.

As to `CCN1C(=O)[C@@H](NC(=O)c2cccc(C(F)(F)F)c2)[C@@H](c2ccc(F)cc2)c2c(CNC#N)nn(-c3ccccc3)c21` [Compound I-140, N-[(4S, 5S)-3-[(cyanoamino)methyl]-7-ethyl-4-(4-fluorophenyl)-6-oxo-1-phenyl-4,5-dihydropyrazolo[3,4-b]pyridine-5-yl]-3-(trifluoromethyl) benzamide], the pIC50 in assay [1] (setting [3]) and in assay [1] (setting [4]) was at least 6.70 each time. Moreover, the pEC50 in assay [2] (Homo sapiens, 240 h) is 6.00 to 7.00. Further, the “Nanostring Ymax obs (%)” value in assay [2] was “++ (Nanostring Ymax greater than 50.0 and less than or equal to 100.0)”.

Turning to `CCN1C(=O)[C@@H](NC(=O)c2cccc(C(F)(F)F)c2)[C@@H](c2ccc(F)cc2)c2c(C(=O)N3CS(=O)(=O)C[C@H]3C#N)nn(C3CCOCC3)c21` (mixture of isomers) [Compound I-661, N-((4S,5S)-3-(4-cyano-1,1-dioxidothiazolidine-3-carbonyl)-7-ethyl-4-(4-fluorophenyl)-6-oxo-1-(tetrahydro-2H-pyran-4-yl)-4,5,6,7-tetrahydro-1H-pyrazolo[3,4-b]pyridin-5-yl)-3-(trifluoromethyl)benzamide], the pIC50 in assay [1] (setting [3]) and in assay [1] (setting [4]) was at least 6.70 each time. In addition, the pEC50 in assay [2] (Homo sapiens, 240 h) is at least 7.00. In addition, the “Nanostring Ymax obs (%)” value in assay [2] is “++ (Nanostring Ymax greater than 50.0 and less than or equal to 100.0)”.

Regarding `CCN1C(=O)[C@@H](NC(=O)c2cccc(C(F)(F)F)c2)[C@@H](C2CC2)c2c(C(=O)N3CS(=O)(=O)C[C@H]3C#N)nn(C3CCOCC3)c21` [Compound I-617], the pIC50 in assay [1] (setting [3]) and in assay [1] (setting [4]) was at least 6.70 each time. Also, the “Nanostring Ymax obs (%)” value in assay [2] is “+ (Nanostring Ymax greater than or equal to 0.0 and less than or equal to 50.0)”.

`CCN1C(=O)[C@@H](NC(=O)c2cccc(C(F)(F)F)c2)[C@@H](C2CC2)c2c(C(=O)N3C[C@H](F)C[C@H]3C#N)nn(C3CCOCC3)c21` [Compound I-372]: the pIC50 in assay [1] (setting [3]) and in assay [1] (setting [4]) was at least 6.70 throughout. For the same compound, the pEC50 in assay [2] (Homo sapiens, 240 h) is 6.00 to 7.00. Further, in assay [2], the “Nanostring Ymax obs (%)” value is “++ (Nanostring Ymax greater than 50.0 and less than or equal to 100.0)”.

Consider `CCN1C(=O)[C@@H](NC(=O)c2cccc(C(F)(F)F)c2)[C@@H](c2ccc(F)cc2)c2c(CN(C)C#N)nn(-c3ccccc3)c21` [Compound I-92], for which the negative-log IC50 (pIC50) in assay [1] (setting [3]) was at least 6.70; in assay [1] (setting [4]), 6.00 to 6.70. Also, in assay [2], the pEC50 was 6.00 to 7.00. For the same compound, in assay [2], the “Nanostring Ymax obs (%)” value is “++ (Nanostring Ymax greater than 50.0 and less than or equal to 100.0)”.
